Data from patent US8105652B2, “Methods of making decomposable thin films of polyelectrolytes and uses thereof” (Massachusetts Institute of Technology, priority 2002, dated 2012).

Assay: Release from two-component films with barrier layers
Type: physicochemical
Source text: In one exemplary embodiment, a range of strategies were employed to control the relative positions of multiple, labeled species within a single film by constructing physical barriers to separate the two components. In one embodiment, films were constructed containing 20-40 base layers of polymer 1/HEP, followed by a set of “barrier” layers including polymer 1/SPS (degradable), PDAC/SPS (non-degradable), thermally cross-linked PAH/PAA, or nothing at all, followed by 20-40 surface layers of polymer 1/DS (FIG. 18). A similar set of films was also constructed, but with the order of the labeled components reversed (e.g., DS base layers and HEP surface layers).
Thus, the use of a single covalently cross-linked PAH/PAA layer was sufficient to separate the two components when deposited onto the surface of the linearly growing polymer 1/DS system, as evidenced by the two-stage release profile. Following a delay of approximately 25 h, the underlying DS was released with a linear profile.
FIG. 27A illustrates the effect of barrier layers on the average release rate from the exemplary two-component systems described above. It is apparent that the average release rate (taken as the average slope of the initial, linear portion of the release curve) of systems including of an underlying layer of linearly-growing DS can be broadly controlled using both multiple layers of a nondegradable system PDAC/SPS or as little as a single layer of cross-linked PAH/PAA. Further, by tuning any of the parameters affecting the degree of cross-linking (e.g., cross-linking time, temperature, number of cross-linked layers), the release rate can be dramatically altered. […] Thus, milder cross-linking conditions (e.g., lower temperatures) may allow for a greater degree of flexibility in tailoring release profiles. Further, aqueous, chemical cross-linking techniques using common biochemical reagents such as carbodiimides may represent a suitable alternative to thermal cross-linking when low temperature fabrication is required. Nevertheless, one skilled in the art will recognize that a range of approaches may be employed to control the release of underlying species, particularly when the underlying species lacks the ability to diffuse throughout the film.
General Considerations. A Harrick PDC-32G plasma cleaner was used to etch silicon substrates (3 cm×2 cm) following rinsing with methanol and deionized water and drying under a stream of dry nitrogen. Layer-by-layer thin films were deposited using an automated Carl Zeiss HMS Series Programmable Slide Stainer. Absorbances from growing films were measured using Fourier Transform Infrared Spectroscopy (FTIR) using a Nicolet Magna IR 550 Series II Spectrometer. Zinc selenide substrates used for transmission FTIR analysis were prepared using the same method employed for silicon substrates, Ellipsometric measurements for film thickness were conducted using a Gaertner Variable Angle Ellipsometer ([…], 70° incident angle) and Gaertner Ellipsometer Measurement Program (GEMP) Version 1.2 software interface. The release of radiolabeled polymers was quantified using a Tri-carb liquid scintillation counter (Model U2200). […] (PAH/PAA) films were thermally cross-linked by incubating films in a Yamoto DVS400 gravity convection oven at 215° C. for indicated time intervals.
Release Studies. For drug release experiments, radiolabeled LbL thin films were first constructed by alternately depositing polymer 1 and the indicated radiolabeled drug(s). Radiolabled deposition solutions containing ^3H-heparin were prepared by combining 1 mL of 50 μCi/mL ^3H-heparin (0.30 mCi/mg, Mn=12500) with 35 mL of 100 mM acetate buffer. Unlabeled heparin (Mn=12500) was added to bring the total concentration of heparin (unlabeled plus labeled) to 2 mg/mL (1.5-2 μCi/mL ^3H). […]

[1] = DS base layer, heparin surface layer, 50 (PDAC/SPS) non-degradable dividing layers
[2] = DS base layer, heparin surface layer, 50 (Poly1/SPS) degradable dividing layers
[3] = DS base layer, heparin surface layer, separated by a single cross-linked layer of (PAH/PAA)
[4] = DS base layer, heparin surface layer, without dividing layers
[5] = heparin base layer, DS surface layer, (PDAC/SPS)50 non-degradable dividing layers
[6] = heparin base layer, DS surface layer, (Poly1/SPS)20 degradable dividing layers
[7] = heparin base layer, DS surface layer, without dividing layers
[8] = polymer 1/DS base, single PAH/PAA bilayer cross-linked 20 min at 215° C., polymer 1/HEP surface

| Substance | release pattern [1] | release pattern [2] | release pattern [3] | release pattern [4] | change in release rate (cross-linking times greater than 1.5 h at 215° C., or barriers with more than five cross-linked layers (data not shown)) | release pattern [5] | release pattern [6] | release pattern [7] | release of underlying DS (multiple layers of PAH/PAA cross-linked longer than 1.5 h at 215° C., up to 45 days) | average rate of DS release, slower than in corresponding films without covalently cross-linked barrier layers [8] | delay before release of underlying DS [8] | effect of barrier layer on release of heparin (heparin-loaded films coated with a single layer of (PAH/PAA) cross-linked 45 min at 215° C. vs untreated films) |
| --- | --- | --- | --- | --- | --- | --- | --- | --- | --- | --- | --- | --- |
| Dextran sulfate sodium salt [DS] | simultaneous release | simultaneous release | sequential release | simultaneous release | one to two order of magnitude decreases | simultaneous release | simultaneous release | simultaneous release | no release of DS was observed | approximately 60% | approximately 25 h | – |
| Heparin sodium salt | simultaneous release | simultaneous release | sequential release | simultaneous release | – | simultaneous release | simultaneous release | simultaneous release | – | – | – | does not significantly delay |
